# Entries after “also recorded” stand apart in the source; their conditions may differ.
# Key:
# [1] = system: HL-60 cells; assay: Flow cytometry of apoptosis (c-PARP+, aqua amine+) in HL-60 cells; format: cell-based, human; conditions: 50 to 200 nM, 72 hours
# Protocol: AML cell lines were purchased from ATCC and maintained with IMDM (Gibco) supplemented with 10% FBS (Fisher Scientific) and 1% PSG (Gibco). Cells were plated at a density of 2-4×10^5 cells/ml, and treated with various doses of Compound A in 0.1% DMSO or 0.1% DMSO alone. Cell counts and viability were determined using the Vi-CELL XR Cell Viability Analyzer (Beckman Coulter). HL-60 and KG-1 cells overexpressing CREB or CBP were generated using lentiviral gene delivery with subsequent puromycin selection and FACs sorting for GFP. CREB knockdown was achieved by infecting cells with a lentivirus expressing the shRNA sequence 5′-[…]-3′ (SEQ ID NO:). For chemotherapy combination experiments, combination index values were calculated using median effects analysis on Calcusyn software. Human patient bone marrow samples were cultured in DMEM plus 20% FBS and 1×PSG, supplemented with recombinant GM-CSF (20 ng/ml), G-CSF (20 ng/ml), SCF (50 ng/ml), IL-3 (20 ng/ml), and IL-6 (10 ng/ml). Cells were plated at a concentration of 1×10^5 cells/ml in a 12-well plate. Vehicle (0.1% DMSO) or Compound A (2 μM) was added for up to 72 hours. All samples contained >85% AML blasts and were not sorted prior to performing experiments. […] Single cell suspensions of bone marrow culture were subsequently analyzed on a D×P10 flow cytometer (Cytek). […]
# [2] = system: HL-60 cells; assay: HL-60 cell viability, Trypan blue exclusion assay; format: cell-based, human; conditions: 50 nM, 48 hours
# Source text: FIG. 11, panels A-D, illustrates ABT-737 Causes Apoptosis in HL-60 Cells; CyTOF Gating Scheme. […] Panel D) CyTOF gating scheme, used to perform analysis specifically on AML cells within AML patient marrow samples.
# [3] = system: CREB phosphorylation; assay: CREB phosphorylation in HL-60 cells; format: cell-based, human; conditions: HL-60 cells; BI-D1870 5 μM, SB202190 10 μM, U0126 10 μM
# Source text: FIG. 12, panels A-D, illustrates the results of CyTOF Phenotyping and Compound A Combination Studies. […] Viability for Compound A treatment alone was 87.4±7.3%, versus 55.3±3.4% and 49.5±2.3% when combined with ERK and RSK inhibitors, respectively (* indicates p<0.05 compared to cells treated with Compound A alone). Panel D) Compound A inhibits CREB phosphorylation in the presence of serum. HL-60 cells were serum-starved then stimulated with serum.
# Cells were lysed in RIPA buffer (Sigma), and the protein concentrations were determined by BCA assay (Thermo Scientific Pierce). Lysates were solubilized in 6×SDS PAGE buffer and […] of protein was loaded into 6-15% SDS PAGE gels, pheresed, and then transferred onto […] PVDF membrane (Millipore). Primary antibodies were applied at a dilution of 1:1000. Anti-Bcl-2, -Bax, -Mcl-1, -Bcl-XL, -Cyclin A and -Cyclin D1 antibodies were purchased from Cell Signaling Technologies. Anti-total acetylated histone and -ac-H3K27 were purchased from Santa Cruz Biotechnologies. Anti-actin and -CREB antibodies were purchased from upstate. Secondary antibodies were used at a 1:2500 dilution and purchased from Thermo Scientific/Pierce. WesternBright ECL was used for image acquisition on Image Lab software (Bio-Rad).
# [4] = system: HL-60 cells; assay: HL-60 viability, combination of Compound A with kinase inhibitors; format: cell-based, human; conditions: 48 hours
# [5] = system: HL60 (Human promyelocytic leukemia cell line); assay: CellTiter Glo assay in HL60 cells; format: cell-based
# Protocol: (§1) The compounds prepared according to the methods described herein and tested for activity in the CellTiter Glo assay in HL60 (Human promyelocytic leukemia cell line), Jukat (human T lymphocyte cell line for acute T cell leukemia) and/or Nalm6 (human ALL cell line) cells.
# (§2) Compounds were prepared according to the methods described herein and tested for activity in the CellTiter Glo assay in HL60 (Human promyelocytic leukemia cell line), Jukat (human T lymphocyte cell line for acute Tcell leukemia) and/or Nalm6 (human ALL cell line) cells.
# [6] = system: Jukat (human T lymphocyte cell line for acute T cell leukemia); assay: CellTiter Glo assay in Jukat cells; format: cell-based
# Protocol: as §1, §2
# [7] = system: Nalm6 (human ALL cell line); assay: CellTiter Glo assay in Nalm6 cells; format: cell-based
# Protocol: as §1, §2
# [8] = system: Caspase-3; assay: Caspase-3 protease activity (ApoTarget kit); format: cell-based; conditions: etoposide control
# Source text: The ApoTarget Caspase-3 Protease Activity Kit (Invitrogen) was used per manufacturer's instructions.
# The balance between pro- and anti-apoptotic protein expression contributes to cell fate decisions. CREB regulates the expression of several anti-apoptotic proteins, including Bcl-2, Bcl-XL and Mcl-1. Bcl-2 expression in particular is known to mediate resistance to chemotherapy and influence clinical outcome in a number of cancer types, including AML. The ability of Compound A to cause apoptosis by disrupting the CREB-driven expression of these anti-apoptotic proteins was examined. In HL-60 cells treated with Compound A, apoptosis is induced in a dose- and time-dependent manner. […] Compound A elicited apoptosis through the intrinsic apoptosis pathway, with activation of Caspase-3 (FIG. 5, panel B) and detectable Caspase-9 cleavage (data not shown). Relative caspase-3 activity at 24 hours: 5.4±0.8 for etoposide, 1±0.78, 0.93±0.71, 1.02±0.67, 2.9±0.58, 5.1±0.63, 4.1±0.71 for 0, 1, 1.5, 2, 2.5 and 3 mM Compound A, respectively. Activity at 72 hours: 1.2±0.05 for etoposide, 1.0±0.02, 1.9±0.03, 3.7±0.04, 4.4±0.05, 2.1±0.03, 1.9±0.02 for 0, 1, 1.5, 2, 2.5 and 3 mM Compound A, respectively. The transcription of Bcl-2 decreased following 72 hours of 2 mM Compound A treatment (FIG. 5, panel C), and this was verified by Western blot analysis (FIG. 5, panel D). […] To confirm whether loss of Bcl-2 function alone is sufficient to induce apoptosis in AML cells, HL-60 cells were treated with the validated Bcl-2 inhibitor ABT-737 (50 to 200 nM). […] Bcl-2 levels are influenced by CREB expression in these AML cell lines (FIG. 11, panel C).
# [9] = system: CREB-driven promoter (CRE); assay: CREB-driven (CRE) luciferase reporter in KG-1 cells; format: cell-based; conditions: KG-1 cells, 6 hours; 3, 10 and 30 μM
# Protocol: (§3) KG-1 cell lines were created to express luciferase in a CREB-dependent or non-CREB-dependent fashion using lentiviral gene delivery. Cells were sorted for mCherry expression by flow cytometry and selected with puromycin. Luciferase activity was measured on a […] using the Promega Luciferase Activity Kit (Promega) per manufacturer's instructions following six hours of treatment with Compound A or 0.1% DMSO. The split Renilla luciferase complementation assay has been described previously (Li BX, and Xiao X. Discovery of a small-molecule inhibitor of the KIX-KID interaction. Chembiochem: a European journal of chemical biology. 2009; 10(17):2721-4). In this assay, the KID and KIX domains were fused to the N- and C-terminal regions of Renilla luciferase, respectively. Once KIX binds phosphorylated KID, the Renilla luciferase regions were brought together, resulting in luciferase activity.
# (§4) To test the ability of Compound A to disrupt CREB-CBP binding in cells, a split Renilla luciferase complementation assay was performed. […] This early timepoint was selected to permit accurate reporter gene activity measurement prior to the onset of anticipated global cell dysfunction or death induced by Compound A. Treatment with 3 μM Compound A reduced luciferase activity by 33.2±7.7% at this timepoint. […] Thus, Compound A inhibits CREB function through disruption of CREB:CBP interaction.
# [10] = system: CMV-driven promoter; assay: CMV-driven luciferase reporter in KG-1 cells; format: cell-based; conditions: 6 hours
# Protocol: as §3, §4
# [11] = system: KG-1 cells; assay: Viable cell count of engineered KG-1 cell lines (CREB KD, GFP, CREB OE, CBP OE); format: cell-based; conditions: same four KG-1 cell lines, 30 μM
# Protocol: AML cell lines were purchased from ATCC and maintained with IMDM (Gibco) supplemented with 10% FBS (Fisher Scientific) and 1% PSG (Gibco). Cells were plated at a density of 2-4×10^5 cells/ml, and treated with various doses of Compound A in 0.1% DMSO or 0.1% DMSO alone. Cell counts and viability were determined using the Vi-CELL XR Cell Viability Analyzer (Beckman Coulter). HL-60 and KG-1 cells overexpressing CREB or CBP were generated using lentiviral gene delivery with subsequent puromycin selection and FACs sorting for GFP. CREB knockdown was achieved by infecting cells with a lentivirus expressing the shRNA sequence 5′-[…]-3′ (SEQ ID NO:). For chemotherapy combination experiments, combination index values were calculated using median effects analysis on Calcusyn software. Human patient bone marrow samples were cultured in DMEM plus 20% FBS and 1×PSG, supplemented with recombinant GM-CSF (20 ng/ml), G-CSF (20 ng/ml), SCF (50 ng/ml), IL-3 (20 ng/ml), and IL-6 (10 ng/ml). Cells were plated at a concentration of 1×10^5 cells/ml in a 12-well plate. Vehicle (0.1% DMSO) or Compound A (2 μM) was added for up to 72 hours. All samples contained >85% AML blasts and were not sorted prior to performing experiments. Immunostaining and flow cytometry analyses were performed according to standard procedures. All antibodies were purchased from BD Biosciences. Single cell suspensions of bone marrow culture were subsequently analyzed on a D×P10 flow cytometer (Cytek). Bone marrow from AML patients were collected through voluntary patient participation at University of California, Los Angeles (Los Angeles, Calif., USA) and Stanford University (Palo Alto, Calif., USA) in compliance with the Institutional Review Board regulations of each institution.
# To test the effects of CREB inhibition on AML cells, four AML cell lines were treated with doses of Compound A ranging from 100 pM to 10 μM for 48 hours. […] KG-1 cells were less sensitive to Compound A and expressed lower levels of CREB compared to HL-60 cells (FIG. 2, panel A). CREB was overexpressed to determine whether sensitivity of KG-1 cells to Compound A could be increased. KG-1 cell lines in which CREB or CBP was overexpressed, or CREB was knocked down by shRNA, were generated (FIG. 2C). A KG-1 cell line expressing only GFP was used as a control. These cell lines were treated with a range of Compound A concentrations for 48 hours (FIG. 2D). Experiments were also performed to examine the efficacy of combining Compound A with cytarabine or daunorubicin, standard drugs used in AML therapy.
compound,measurement,setting,value
"CN(C)CC[C@H](CSc1ccccc1)Nc1ccc(S(=O)(=O)NC(=O)c2ccc(N3CCN(Cc4ccccc4-c4ccc(Cl)cc4)CC3)cc2)cc1[N+](=O)[O-] [ABT-737, reference compound]",apoptosis,[1],Apoptosis was induced
same,cell viability,[2],reduced cell viability
"CC(C)CCN1c2nc(Nc3cc(F)c(O)c(F)c3)ncc2N(C)C(=O)C1C (centres unmarked) [BI-D1870, reference compound]",compensatory CREB phosphorylation following Compound A treatment,[3],blocked compensatory CREB phosphorylation
same,effect of combination with Compound A on viability,[4],additive effects
O=C(Nc1ccc([N+](=O)[O-])cc1Cl)c1ccc2cccnc2c1O [Compound 82],IC50,"[5]; HL-60, Table 5",0.1 to 1 µM
same,IC50,[6]; Table 5,0.1 to 1 µM
same,IC50,"[7]; NALM-6, Table 5",< 0.1 µM
O=C(Nc1cc(Cl)ccc1Cl)c1ccc2cccnc2c1O [Compound 83],IC50,"[5]; HL-60, Table 5",1 to 10 µM
same,IC50,[6]; Table 5,0.1 to 1 µM
same,IC50,"[7]; NALM-6, Table 5",0.1 to 1 µM
N#Cc1cc(Cl)ccc1NC(=O)c1ccc2cccnc2c1O [Compound 84],IC50,"[5]; HL-60, Table 5",0.1 to 1 µM
same,IC50,[6]; Table 5,< 0.1 µM
same,IC50,"[7]; NALM-6, Table 5",0.1 to 1 µM
N#Cc1ccc(NC(=O)c2ccc3cccnc3c2O)c(C#N)c1 [Compound 85],IC50,"[5]; HL-60, Table 5",0.1 to 1 µM
same,IC50,[6]; Table 5,0.1 to 1 µM
same,IC50,"[7]; NALM-6, Table 5",0.1 to 1 µM
Cc1ccc(C#N)c(NC(=O)c2ccc3cccnc3c2O)c1 [Compound 86],IC50,"[5]; HL-60, Table 5",1 to 10 µM
same,IC50,[6]; Table 5,0.1 to 1 µM
same,IC50,"[7]; NALM-6, Table 5",0.1 to 1 µM
N#Cc1ccc(NC(=O)c2ccc(-c3ccccc3)cc2O)cc1 [Compound 101],IC50,"[5]; HL-60, second Table 4",< 1 µM
same,IC50,[6]; second Table 4,< 1 µM
same,IC50,"[7]; NALM-6, second Table 4",< 1 µM
O=C(Nc1cc(C(F)(F)F)cc(C(F)(F)F)c1)c1cc(Br)ccc1O [Compound 159],IC50,"[5]; HL-60, second Table 4",< 1 µM
same,IC50,[6]; second Table 4,< 1 µM
same,IC50,"[7]; NALM-6, second Table 4",< 1 µM
N#Cc1ccc(NC(=O)c2cc(Cl)c(F)cc2O)cc1 [Compound 161],IC50,"[5]; HL-60, second Table 4",< 1 µM
same,IC50,[6]; second Table 4,< 1 µM
same,IC50,"[7]; NALM-6, second Table 4",> 10 µM
N#Cc1ccc(NC(=O)c2cc(-c3cc(F)cc(F)c3)ccc2O)cc1 [Compound 233],IC50,"[5]; HL-60, second Table 4",1 to 10 µM
same,IC50,[6]; second Table 4,1 to 10 µM
same,IC50,"[7]; NALM-6, second Table 4",1 to 10 µM
"Oc1ccc(-c2nc(-c3ccncc3)c(-c3ccc(F)cc3)[nH]2)cc1 [SB202190, reference compound]",compensatory CREB phosphorylation following Compound A treatment,[3],blocked compensatory CREB phosphorylation
same,effect of combination with Compound A on viability,[4],additive effects
"COc1cc([C@@H]2c3cc4c(cc3[C@@H](O[C@@H]3O[C@@H]5CO[C@@H](C)O[C@H]5[C@H](O)[C@H]3O)[C@H]3COC(=O)[C@H]23)OCO4)cc(OC)c1O [etoposide, reference compound]",relative caspase-3 activity,[8]; 24 hours,5.4±0.8
same,relative caspase-3 activity,[8]; 72 hours,1.2±0.05
"N-methyl-(4-chlorophenyl)-3-hydroxy-naphthamide [Analog B, reference compound]",CREB-driven luciferase activity,[9],No statistical difference; also recorded: no significant effect
same,CMV-driven luciferase expression,[10],No statistical difference; also recorded: no significant effect
same,viability or proliferation rate,[11],no reduction in viability or proliferation rate
